# In BindingDB's records for patent US10383835 (University of California, 2019):
# Molecular target: T1, Bifunctional epoxide hydrolase 2 (Sus scrofa, UniProt Q6Q2C2)
# T1 sequence (Q6Q2C2 whole entry): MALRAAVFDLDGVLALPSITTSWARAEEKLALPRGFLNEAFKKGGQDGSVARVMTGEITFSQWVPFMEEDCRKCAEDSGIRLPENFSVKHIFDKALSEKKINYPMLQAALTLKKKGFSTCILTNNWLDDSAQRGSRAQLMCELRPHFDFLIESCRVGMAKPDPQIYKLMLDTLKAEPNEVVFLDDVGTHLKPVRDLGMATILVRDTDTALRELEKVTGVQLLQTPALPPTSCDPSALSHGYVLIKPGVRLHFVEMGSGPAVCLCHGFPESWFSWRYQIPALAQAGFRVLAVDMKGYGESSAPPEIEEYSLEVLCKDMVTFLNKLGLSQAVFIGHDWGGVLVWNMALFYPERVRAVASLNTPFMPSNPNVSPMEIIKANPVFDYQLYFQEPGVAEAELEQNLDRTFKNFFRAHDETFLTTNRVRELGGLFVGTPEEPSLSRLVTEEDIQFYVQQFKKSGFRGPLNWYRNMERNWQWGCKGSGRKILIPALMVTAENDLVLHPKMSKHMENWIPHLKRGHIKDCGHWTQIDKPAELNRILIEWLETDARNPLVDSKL
# Assay: Inhibition Assay
# Excerpt: The enzyme also can be detected based on the binding of specific ligands to the catalytic site which either immobilize the enzyme or label it with a probe such as dansyl, fluoracein, luciferase, green fluorescent protein or other reagent. The enzyme can be assayed by its hydration of EETs, its hydrolysis of an epoxide to give a colored product. The assays are normally carried out with a recombinant enzyme following affinity purification.
compound,measurement,value
"CC(=O)N1CCC(NC(=O)Nc2ccc(OC(F)(F)F)cc2)CC1 [US10383835, Compound 1555]",IC50,201 nM
